Molecular target: human TRPA1 (Homo sapiens (Human), UniProt O75762)
Assay: Measurement of TRPA1 antagonist activity (intracellular calcium increase induced by allylisothiocyanate in 293T cells transfected with human TRPA1)
Assay type: cell-based
Settings: 293T cells expressing human TRPA1, allylisothiocyanate stimulation, FLIPR Calcium4 fluorescence; read-out: hTRPA1 IC50
Description: Measurement of TRPA1 Antagonist Activity
Human TRPA1 Expression Plasmid
Using cDNA encoding human TRPA1 (GenBank accession No. NM_007332) (manufactured by Kazusa DNA Research Institute, item No. FHC07217) as a template, primer 1 (SEQ ID NO: 1) and primer 2 (SEQ ID NO: 2), PCR by PfuUltra High-Fidelity DNA Polymerase (Stratagene) was performed, and full-length human TRPA1 gene was amplified.
A recognition site (underlined) of restriction enzyme HindIII was added to the 5′ end of human TRPA1 gene, and XbaI site (underlined) was added to the 3′ end of human TRPA1 gene, and GTT of the template sequence was changed to termination codon TAG (bold). The obtained double stranded DNA was enzyme-digested with HindIII and XbaI, and introduced into a multicloning site of expression plasmid pcDNA3.1/zeo(+) (manufactured by Invitrogen) to give a human TRPA1 expression plasmid.
Human embryonic kidney-derived 293T cells were cultured in Dulbecco's Modified Eagle Medium containing 10% fetal bovine serum, 10 unit penicillin, and 10 μg streptomycin. One day before assay, 3×10^6 of 293T cells were plated on a petri dish having a diameter of 10 cm, and cultured in a CO2 incubator for 24 hr. OPTI-MEM I Reduced Serum Media (Invitrogen) (600 μL), Mirus TransIT-293 (Mirus Bio) (18 μL), and human TRPA1 expression plasmid (6 μg) were mixed, the total amount of the mixture was added to the cells on the petri dish to allow for gene transfer. The cells were recovered about for 8 hr later, plated on a poly-D-lysine coated 384 well black/clear bottom plate at 12,000 cells/well, and cultured overnight.
Measurement of Intracellular Calcium Increase
The medium was removed from the 384 well plate, calcium indicator (Molecular Device, trade name: FLIPR Calcium4 Assay Kit) dissolved in HBSS (Thermo Fisher Scientific) (pH 7.2) containing 20 mM HEPES was added (38 μL/well), and the cells were stained in a CO2 incubator for 1 hr. The 384 well plate was stood at room temperature for not less than 15 min, set on FDSS7000 (Hamamatsu Photonics K.K.), and a test substance solution was added at 10 μL/well. After 10 min, allylisothiocyanate solution (12 μL/well) was added, the relative fluorescence intensity was measured for 5 min after addition of the allylisothiocyanate solution.
Test Substance Preparation
Preparation of Test Substance Solution and Allylisothiocyanate Solution
A test substance solution was prepared to have a composition of HBSS (Thermo Fisher Scientific) (pH 7.2) containing 0.48% dimethyl sulfoxide, a test substance at 4.8-fold concentration of the evaluation concentration, 0.1% bovine serum albumin and 20 mM HEPES. An allylisothiocyanate solution was prepared to have a composition of HBSS (Thermo Fisher Scientific) (pH 7.2) containing 0.1% dimethyl sulfoxide, 100 μM allylisothiocyanate, 0.1% bovine serum albumin and 20 mM HEPES.
Calculation of Antagonist Activity
The activity rate of a test substance at each concentration was calculated, wherein the relative fluorescence intensity change of a well free of a test substance and containing allylisothiocyanate is 100% activity rate, and the relative fluorescence intensity change of a well free of a test substance and allylisothiocyanate is 0% activity rate. The inhibitory rate of a test substance at each concentration was calculated by subtracting the activity rate of the test substance from 100% activity rate, and the concentration of a test substance showing 50% inhibitory rate was calculated as IC50 from the sigmoid approximate curve by XLfit (idbs).

Chain of human TRPA1 (O75762 whole entry): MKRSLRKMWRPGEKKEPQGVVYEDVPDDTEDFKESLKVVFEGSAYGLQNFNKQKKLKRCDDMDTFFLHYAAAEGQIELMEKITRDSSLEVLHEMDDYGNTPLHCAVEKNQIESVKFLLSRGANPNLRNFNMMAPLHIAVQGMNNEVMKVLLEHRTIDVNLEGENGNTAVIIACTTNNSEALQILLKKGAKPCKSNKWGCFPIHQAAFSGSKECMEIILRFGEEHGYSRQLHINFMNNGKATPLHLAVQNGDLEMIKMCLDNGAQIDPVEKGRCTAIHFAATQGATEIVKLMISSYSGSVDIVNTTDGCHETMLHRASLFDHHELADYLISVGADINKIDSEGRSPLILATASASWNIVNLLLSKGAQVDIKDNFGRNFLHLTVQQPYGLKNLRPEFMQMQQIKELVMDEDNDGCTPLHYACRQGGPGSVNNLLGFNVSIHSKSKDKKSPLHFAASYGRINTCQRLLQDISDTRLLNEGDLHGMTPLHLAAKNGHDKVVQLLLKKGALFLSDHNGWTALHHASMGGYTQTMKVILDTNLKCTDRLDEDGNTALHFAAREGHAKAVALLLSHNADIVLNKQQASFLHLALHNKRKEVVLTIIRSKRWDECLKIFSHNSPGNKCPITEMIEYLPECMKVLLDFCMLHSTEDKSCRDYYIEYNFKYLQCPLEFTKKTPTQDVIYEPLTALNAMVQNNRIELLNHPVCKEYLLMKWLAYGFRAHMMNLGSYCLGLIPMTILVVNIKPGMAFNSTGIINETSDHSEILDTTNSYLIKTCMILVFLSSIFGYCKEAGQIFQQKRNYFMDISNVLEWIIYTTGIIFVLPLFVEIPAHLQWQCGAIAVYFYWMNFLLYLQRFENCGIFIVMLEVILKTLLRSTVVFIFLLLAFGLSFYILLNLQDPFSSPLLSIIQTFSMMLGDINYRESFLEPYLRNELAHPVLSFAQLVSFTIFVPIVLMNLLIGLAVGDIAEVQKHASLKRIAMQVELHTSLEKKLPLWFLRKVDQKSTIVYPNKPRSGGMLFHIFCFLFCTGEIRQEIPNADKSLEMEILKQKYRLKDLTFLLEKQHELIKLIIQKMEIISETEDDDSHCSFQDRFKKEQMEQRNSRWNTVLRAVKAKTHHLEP

Structure (SMILES)	IC50
CC(C)n1c(=O)c(CNC(=O)[C@H](C)NS(=O)(=O)c2cc3cc(F)ccc3o2)cn(-c2ccc(C(F)(F)F)cc2)c1=O [Example 24]	42 nM
CC(C)n1c(=O)c(CNC(=O)[C@@H]2[C@@H](O)CCN2S(=O)(=O)c2cc3cc(F)ccc3o2)cn(-c2ccc(C(F)(F)F)cc2)c1=O [Example 8, (2S,3S)-1-(5-fluorobenzofuran-2-yl)sulfonyl-3-hydroxy-N-[[3-isopropyl-2,4-dioxo-1-[4-(trifluoromethyl)phenyl]pyrimidin-5-yl]methyl]pyrrolidine-2-carboxamide]	64 nM
O=C(NCc1ccc(=O)n(-c2ccc(C(F)(F)F)cc2)c1)[C@@H]1CCCN1S(=O)(=O)c1cc2ccccc2o1 [Example 14, (2S)-1-(benzofuran-2-ylsulfonyl)-N-[[6-oxo-1-[4-(trifluoromethyl)phenyl]-3-pyridyl]methyl]pyrrolidine-2-carboxamide]	160 nM
CC(C)n1cc(-c2ccc(C(F)(F)F)cc2)cc(CNC(=O)[C@@H]2CCCN2S(=O)(=O)c2cc3cnccc3o2)c1=O [Example 27, (2S)-1-fro[3,2-c]pyridin-2-ylsulfonyl-N-[[1-isopropyl-2-oxo-5-[4-(trifluoromethyl)phenyl]-3-pyridyl]methyl]pyrrolidine-2-carboxamide]	93 nM
CC(C)n1cc(CNC(=O)[C@@H]2CCCN2S(=O)(=O)c2cc3cc(F)ccc3o2)cc(-c2ccc(C(F)(F)F)cn2)c1=O [Example 51, (2S)-1-(5-fluorobenzofuran-2-yl)sulfonyl-N-[[1-isopropyl-6-oxo-5-[5-(trifluoromethyl)-2-pyridyl]-3-pyridyl]methyl]pyrrolidine-2-carboxamide]	81 nM
CC(C)n1c(=O)c(CNC(=O)[C@@H]2CCCN2S(=O)(=O)c2ccc(F)cc2)cn(-c2ccc(C(F)(F)F)cc2)c1=O [Example 12, (2S)-1-(4-fluorophenyl)sulfonyl-N-[[3-isopropyl-2,4-dioxo-1-[4-(trifluoromethyl)phenyl]pyrimidin-5-yl]methyl]pyrrolidine-2-carboxamide]	120 nM
CCn1c(=O)c(CNC(=O)[C@@H]2CCCN2S(=O)(=O)c2cc3cc(F)ccc3o2)cn(-c2ccc(C(F)(F)F)cc2)c1=O [Example 4, (2S)-1-(5-fluorobenzofuran-2-yl)sulfonyl-N-[[3-ethyl-2,4-dioxo-1-[4-(trifluoromethyl)phenyl]pyrimidin-5-yl]methyl]pyrrolidine-2-carboxamide]	11 nM
CC(C)n1c(=O)c(CNC(=O)[C@@H]2CCCN2S(=O)(=O)c2cc3cc(F)ccc3o2)cn(-c2ccc(C(F)(F)F)nc2)c1=O [Example 30, (2S)-1-(5-fluorobenzofuran-2-yl)sulfonyl-N-[[3-isopropyl-2,4-dioxo-1-[6-(trifluoromethyl)-3-pyridyl]pyrimidin-5-yl]methyl]pyrrolidine-2-carboxamide]	10 nM
CC(C)n1c(=O)c(CNC(=O)[C@@H]2[C@@H](O)CCN2S(=O)(=O)c2cc3cc(F)ccc3o2)cn(-c2ccc(C(F)(F)F)nc2)c1=O [Example 31, (2S,3S)-1-(5-fluorobenzofuran-2-yl)sulfonyl-3-hydroxy-N-[[3-isopropyl-2,4-dioxo-1-[6-(trifluoromethyl)-3-pyridyl]pyrimidin-5-yl]methyl]pyrrolidine-2-carboxamide]	380 nM
CC(C)n1c(=O)c(CNC(=O)C2(NS(=O)(=O)c3cc4cc(F)ccc4o3)CC2)cn(-c2ccc(C(F)(F)F)cc2)c1=O [Example 26]	250 nM
CC(C)n1c(=O)c(CNC(=O)[C@@H]2CCCN2S(=O)(=O)c2cc3cc(F)ccc3o2)cn(-c2ccc(C(F)(F)F)cc2)c1=O [Example 3, (2S)-1-(5-fluorobenzofuran-2-yl)sulfonyl-N-[[3-isopropyl-2,4-dioxo-1-[4-(trifluoromethyl)phenyl]-pyrimidin-5-yl]methyl]pyrrolidine-2-carboxamide]	7.3 nM

Reference: patent publication US10584116B2, “Heterocyclic sulfonamide derivative and medicine containing same” (EA Pharma Co., Ltd., priority 2016, dated 2020)
